Structures can show the parent of a compound that is named as a salt. Where two headings read alike, the source gives them in different places. Marks after values point to notes of the source that are not given here.
Legend:
[1] = test system: Huh7 cells expressing a subgenomic RNA replicon of Con1 (genotype 1b) sequence origin; test: microbe, parasite or virus in culture; type: cell-based, HCV
HER1-2 = settings: selective HER1 inhibitor (vs. HER1-2); cited from earlier work
[2] = in words; cited from earlier work
[3] = Hepatitis C virus, Huh-7, 48 h; read-out: IC50
[4] = Table 1; inhibition of luciferase activity, 48 hours
[5] = Table 1; inhibition of luciferase activity, 48 hours; read-out: IC50
[6] = Hepatitis C virus, Huh-7, 48 h; read-out: IC25 (values noted with an asterisk)

## CC(=O)Nc1ccccc1OCCCCCOCC(=O)Nc1ccccc1 [2′,2″-(Pentamethylenedioxy)diacetanilide]
[1]; [3]
  IC50: 3.14 µM

## CC(=O)Nc1cccc(OCCCCCOc2cccc(NC(C)=O)c2)c1 [3′,3″-(Pentamethylenedioxy)diacetanilide]
[1]; [4]
  IC25 (values noted with an asterisk): 9.35*

## N#C/C(=C\c1ccc(O)c(O)c1)C(=O)NCc1ccccc1 [AG-490]
[1]; [5]
  IC50: 5.03 µM

## N#C/C(=C\c1ccc(O)c(O)c1)C(=O)Nc1ccccc1 [AG-494]
HER1-2
  IC50: 45 µM

## Nc1ncnc2c1ncn2CCOCP(=O)(O)O [Adefovir (e.g., dipivoxil), Adefovir]
[1]; Table 3; inhibition of luciferase activity, 48 hours; read-out: IC50
  IC50: 0.319 µM

## Cc1ccc(/N=C/N(C)/C=N/c2ccc(C)cc2C)c(C)c1 [Amitraz]
[1]; [6]
  IC25: 26.4 µM

## CC(=O)OC[C@H]1O[C@@H]([S-])[C@H](OC(C)=O)[C@@H](OC(C)=O)[C@@H]1OC(C)=O.CCP(CC)CC.[Au+] [Auranofin]
[2]
  solubility: insoluble in water

## CC(C)NCC(O)COc1ccc(CCOCC2CC2)cc1 (stereo not drawn) [Betaxolol (e.g., hydrochloride), Betaxolol]
[1]; Hepatitis C virus, Huh-7, 48 h, read-out: IC25 (values noted with an asterisk)
  IC25: 29.4 µM

## CCCC(=O)O[C@H]1CN2CC[C@H](O)[C@@H]2[C@@H](O)[C@@H]1O [Celgosivir]
[1]; [6]
  IC25: 6.25 µM

## O=C1[C@H](CC[C@H](O)c2ccc(F)cc2)[C@@H](c2ccc(O)cc2)N1c1ccc(F)cc1 [Ezetimibe]
[1]; [3]
  IC50: 4.2 µM

## Clc1ccc(C(c2ccccc2Cl)C(Cl)Cl)cc1 (stereo not drawn) [Mitotane]
[1]; [6]
  IC25: 28.1 µM

## COc1ccc(C(=O)NCc2cccnc2)cc1C(=O)NCc1cccnc1 [Picotamide]
[1]; [6]
  IC25: 28.7 µM

## CCCCOc1ccc(OCCCN2CCOCC2)cc1 [Pramoxine (e.g., hydrochloride), Pramoxine]
[1]; [6]
  IC25: 5.17 µM

## COc1ccc(CCN(C)CCCC(C#N)(c2ccc(OC)c(OC)c2)C(C)C)cc1OC (stereo not drawn) [R(+)-Verapamil (e.g., hydrochloride), R(+)-Verapamil]
[1]; Hepatitis C virus, Huh-7, 48 h
  IC50: 15.7 µM

## CC(C)=CC[C@@H](O)C1=CC(=O)c2c(O)ccc(O)c2C1=O [Shikonin]
[1]; [6]
  IC25: 26.4 µM

## CO[C@H]1C[C@@H]2CC[C@@H](C)[C@@](O)(O2)C(=O)C(=O)N2CCCC[C@H]2C(=O)O[C@H]([C@H](C)C[C@@H]2CC[C@@H](O)[C@H](OC)C2)CC(=O)[C@H](C)/C=C(\C)[C@@H](O)[C@@H](OC)C(=O)[C@H](C)C[C@H](C)/C=C/C=C/C=C/1C [Sirolimus]
[1]; [6]
  IC25: 0.005 µM

## N#C/C(=C\c1ccc(O)c(O)c1)C(N)=S [Tyrphostin 47]
[1]; [4]
  IC25 (values noted with an asterisk): 18.3*

## O=C1CC(=O)c2c(Cl)c(Cl)c(Cl)c(Cl)c21 [UCH-L3 inhibitor]
[1]; Table 1; inhibition of luciferase activity, 48 hours; in µM
  IC25 (values noted with an asterisk): 19.7*

## Beta Escin
[1]; [5]
  IC50: 4.27 µM

## Chlorophyllin
[1]; [5]
  IC50: 1.3 µM

## Gramicidin
[1]; [5]
  IC50: 0.017 µM

## Manganese gluconate
[1]; read-out: IC50
  IC50: 24.7 µM

## Tunicamycin
[1]; Table 2; inhibition of luciferase activity, 48 hours; read-out: IC50
  IC50: 0.107 µM

## Vitamin B12
[1]; [5]
  IC50: 8.28 µM

From patent US20080161324A1, “Compositions and methods for treatment of viral diseases” (priority 2006, published 2008)
